# Test results reported in PubChem BioAssay (NCI).
#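 Five compound concentrations were applied to cells in 96-well plates for 48 hours; endpoints were derived by simple linear interpolation of the resulting dose-response curve. The concentration for 50% growth inhibition is given as GI50. TGI: concentration producing complete growth inhibition.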
# Columns and labels:
# Assay in all cases: inhibition of tumour cell growth, NCI panel, 48 h
# SF-268 CNS = tested on: SF-268 CNS
# HCT-116 colon = tested on: HCT-116 colon
# SNB-19 CNS = tested on: SNB-19 CNS
# SN12C renal = tested on: SN12C renal
# OVCAR-3 ovarian = tested on: OVCAR-3 ovarian
# CCRF-CEM leukemia = tested on: CCRF-CEM leukemia
# SK-OV-3 ovarian = tested on: SK-OV-3 ovarian
# T-47D breast = tested on: T-47D breast
# MDA-MB-231 breast = tested on: MDA-MB-231 breast
# EKVX NSCLC = tested on: EKVX NSCLC
# A549 NSCLC = tested on: A549 NSCLC
# U251 CNS = tested on: U251 CNS
# A498 renal = tested on: A498 renal
# SNB-75 CNS = tested on: SNB-75 CNS
# OVCAR-8 ovarian = tested on: OVCAR-8 ovarian
# SF-295 CNS = tested on: SF-295 CNS
# UACC-257 melanoma = tested on: UACC-257 melanoma
# BT-549 breast = tested on: BT-549 breast
# SK-MEL-2 melanoma = tested on: SK-MEL-2 melanoma
# K-562 leukemia = tested on: K-562 leukemia
# NCI/ADR-RES ovarian = tested on: NCI/ADR-RES ovarian
# HS 578T breast = tested on: HS 578T breast
# HL-60(TB) leukemia = tested on: HL-60(TB) leukemia
# OVCAR-5 ovarian = tested on: OVCAR-5 ovarian
# MCF7 breast = tested on: MCF7 breast
# HOP-62 NSCLC = tested on: HOP-62 NSCLC
# SK-MEL-28 melanoma = tested on: SK-MEL-28 melanoma
# NCI-H226 lung = tested on: NCI-H226 lung
# 786-0 renal = tested on: 786-0 renal
# MALME-3M melanoma = tested on: MALME-3M melanoma
# MOLT-4 leukemia = tested on: MOLT-4 leukemia
# SF-539 CNS = tested on: SF-539 CNS
# NCI-H460 lung = tested on: NCI-H460 lung
# IGROV1 ovarian = tested on: IGROV1 ovarian
# RXF 393 renal = tested on: RXF 393 renal
# SW-620 colon = tested on: SW-620 colon
# HT29 colon = tested on: HT29 colon
# TK-10 renal = tested on: TK-10 renal
# UO-31 renal = tested on: UO-31 renal
# NCI-H23 lung = tested on: NCI-H23 lung
# RPMI-8226 leukemia = tested on: RPMI-8226 leukemia
# MDA-MB-435 = tested on: MDA-MB-435
# UACC-62 melanoma = tested on: UACC-62 melanoma
# PC-3 prostate = tested on: PC-3 prostate
# NCI-H522 lung = tested on: NCI-H522 lung
# SR leukemia = tested on: SR leukemia
# HOP-92 NSCLC = tested on: HOP-92 NSCLC
# SK-MEL-5 melanoma = tested on: SK-MEL-5 melanoma
# CAKI-1 renal = tested on: CAKI-1 renal
# M14 melanoma = tested on: M14 melanoma
# HCC-2998 colon = tested on: HCC-2998 colon
# LOX IMVI melanoma = tested on: LOX IMVI melanoma
# OVCAR-4 ovarian = tested on: OVCAR-4 ovarian
# HCT-15 colon = tested on: HCT-15 colon
# COLO 205 colon = tested on: COLO 205 colon
# DU-145 prostate = tested on: DU-145 prostate
# ACHN renal = tested on: ACHN renal
# KM12 colon = tested on: KM12 colon
structure (smiles),measurement,setting,value
O=C(NC1CCC(Br)CC1)C1CCCC(S(=O)(=O)NC2CCCCC2)C1 (stereo unspecified),GI50,SF-268 CNS,12.6 µM
same,TGI,SF-268 CNS,56 µM
same,GI50,HCT-116 colon,9.15 µM
same,TGI,HCT-116 colon,38 µM
same,GI50,SNB-19 CNS,11.1 µM
same,TGI,SNB-19 CNS,42.7 µM
same,GI50,SN12C renal,9.29 µM
same,TGI,SN12C renal,39.8 µM
same,GI50,OVCAR-3 ovarian,9.83 µM
same,TGI,OVCAR-3 ovarian,40 µM
same,GI50,CCRF-CEM leukemia,0.233 µM
same,TGI,CCRF-CEM leukemia,26.3 µM
same,GI50,SK-OV-3 ovarian,14.1 µM
same,TGI,SK-OV-3 ovarian,47.3 µM
same,GI50,T-47D breast,6.05 µM
same,TGI,T-47D breast,37 µM
same,GI50,MDA-MB-231 breast,13.5 µM
same,TGI,MDA-MB-231 breast,55.8 µM
same,GI50,EKVX NSCLC,7.81 µM
same,TGI,EKVX NSCLC,32.9 µM
same,GI50,A549 NSCLC,9.81 µM
same,TGI,A549 NSCLC,44.8 µM
same,GI50,U251 CNS,10.9 µM
same,TGI,U251 CNS,43 µM
same,GI50,A498 renal,3.7 µM
same,TGI,A498 renal,21.7 µM
same,GI50,SNB-75 CNS,17 µM
same,TGI,SNB-75 CNS,69.5 µM
same,GI50,OVCAR-8 ovarian,12.8 µM
same,TGI,OVCAR-8 ovarian,59 µM
same,GI50,SF-295 CNS,8.04 µM
same,TGI,SF-295 CNS,28.4 µM
same,GI50,UACC-257 melanoma,9.32 µM
same,TGI,UACC-257 melanoma,38.4 µM
same,GI50,BT-549 breast,8.34 µM
same,TGI,BT-549 breast,35.4 µM
same,GI50,SK-MEL-2 melanoma,11.5 µM
same,TGI,SK-MEL-2 melanoma,46.4 µM
same,GI50,K-562 leukemia,7.52 µM
same,TGI,K-562 leukemia,250 µM
same,GI50,NCI/ADR-RES ovarian,8.36 µM
same,TGI,NCI/ADR-RES ovarian,37.7 µM
same,GI50,HS 578T breast,16.8 µM
same,TGI,HS 578T breast,87.2 µM
same,GI50,HL-60(TB) leukemia,8.6 µM
same,TGI,HL-60(TB) leukemia,82.2 µM
same,GI50,OVCAR-5 ovarian,14.2 µM
same,TGI,OVCAR-5 ovarian,48.8 µM
same,GI50,MCF7 breast,9.31 µM
same,TGI,MCF7 breast,63.8 µM
same,GI50,HOP-62 NSCLC,24 µM
same,TGI,HOP-62 NSCLC,59.8 µM
same,GI50,SK-MEL-28 melanoma,9.22 µM
same,TGI,SK-MEL-28 melanoma,36.8 µM
same,GI50,NCI-H226 lung,12 µM
same,TGI,NCI-H226 lung,109 µM
same,GI50,786-0 renal,19.3 µM
same,TGI,786-0 renal,55 µM
same,GI50,MALME-3M melanoma,6.47 µM
same,TGI,MALME-3M melanoma,39.3 µM
same,GI50,MOLT-4 leukemia,8.91 µM
same,TGI,MOLT-4 leukemia,79.3 µM
same,GI50,SF-539 CNS,13.5 µM
same,TGI,SF-539 CNS,46.3 µM
same,GI50,NCI-H460 lung,11.4 µM
same,TGI,NCI-H460 lung,48 µM
same,GI50,IGROV1 ovarian,9.78 µM
same,TGI,IGROV1 ovarian,46 µM
same,GI50,RXF 393 renal,11.8 µM
same,TGI,RXF 393 renal,48.1 µM
same,GI50,SW-620 colon,13.9 µM
same,TGI,SW-620 colon,53.7 µM
same,GI50,HT29 colon,17.7 µM
same,TGI,HT29 colon,55 µM
same,GI50,TK-10 renal,15 µM
same,TGI,TK-10 renal,49.9 µM
same,GI50,UO-31 renal,6.26 µM
same,TGI,UO-31 renal,33.1 µM
same,GI50,NCI-H23 lung,7.88 µM
same,TGI,NCI-H23 lung,35.3 µM
same,GI50,RPMI-8226 leukemia,9.79 µM
same,TGI,RPMI-8226 leukemia,58 µM
same,GI50,MDA-MB-435,10.6 µM
same,TGI,MDA-MB-435,42.3 µM
same,GI50,UACC-62 melanoma,7.38 µM
same,TGI,UACC-62 melanoma,35.3 µM
same,GI50,PC-3 prostate,8.47 µM
same,TGI,PC-3 prostate,37.1 µM
same,GI50,NCI-H522 lung,8 µM
same,TGI,NCI-H522 lung,38.1 µM
same,GI50,SR leukemia,18.8 µM
same,TGI,SR leukemia,129 µM
same,GI50,HOP-92 NSCLC,4.7 µM
same,TGI,HOP-92 NSCLC,23 µM
same,GI50,SK-MEL-5 melanoma,4.96 µM
same,TGI,SK-MEL-5 melanoma,11.6 µM
same,GI50,CAKI-1 renal,10.2 µM
same,TGI,CAKI-1 renal,42.5 µM
same,GI50,M14 melanoma,9.42 µM
same,TGI,M14 melanoma,39.6 µM
same,GI50,HCC-2998 colon,13 µM
same,TGI,HCC-2998 colon,47.3 µM
same,GI50,LOX IMVI melanoma,10.7 µM
same,TGI,LOX IMVI melanoma,40.4 µM
same,GI50,OVCAR-4 ovarian,8.19 µM
same,TGI,OVCAR-4 ovarian,44.1 µM
same,GI50,HCT-15 colon,11.5 µM
same,TGI,HCT-15 colon,46.9 µM
same,GI50,COLO 205 colon,14 µM
same,TGI,COLO 205 colon,51.5 µM
same,GI50,DU-145 prostate,16.1 µM
same,TGI,DU-145 prostate,47.7 µM
same,GI50,ACHN renal,9.9 µM
same,TGI,ACHN renal,39.4 µM
same,GI50,KM12 colon,13.3 µM
same,TGI,KM12 colon,47.8 µM
